Assay results taken from patent US6660468B1, “Vitro and in vivo models for screening compounds to prevent glucocorticoid-induced bone destruction” (Board of Trustees of the University of Arkansas, priority 1998, dated 2003).

Experiments:
Male Swiss Webster mice [1] = test: Bone densitometry (DEXA) in prednisolone-treated mice; format: in vivo, mouse; details: for Global BMD (% change) / Hindquarters BMD (% change) / Spinal BMD (% change): 27 days
Excerpt: (§1) Bone mineral density (BMD) determinations were done at two week intervals to identify the peak adult bone mass of the mice, which was reached between 5 and 6 months-of-age (9). Animals at peak bone mass were used to avoid obscuring the negative impact of glucocorticoid excess on bone mineral density by the confounding effects of increased linear and radial growth. Before the experiment began, bone mineral density measurements were repeated to allocate the animals into groups (n=4-5) with equivalent spinal density values. […] These doses were administered for 27 days by subcutaneous implantation of slow-release pellets (Innovative Research of America, Sarasota, Fla.). Bone mineral density measurements were obtained at the beginning of the experiment and 27 days post-implantation. For dynamic histomorphometric measurements, tetracycline HCl (30 mg/kg body weight) was given intraperitoneally 17 and 23 days post-implantation. After 27 days, the mice were sacrificed, serum and urine specimens were taken, bone marrow aspirates were obtained from the right femur for ex vivo marrow cell cultures and the left femur and lumbar vertebrae were prepared for histomorphometric analysis. Livers were examined for fatty infiltration as a sign of prednisolone toxicity. The weight of the seminal vesicles (mg/100 g body weight) was used as an index of the androgen status of the animals (12). To help interpret these measurements, a separate group of animals was orchidectomized (n=5).
Dual-energy X-ray absorptiometry (DEXA) was used to determine global (whole body minus the head), spinal and hindquarters bone mineral density in live mice (7,9). The scans done at 27 days after pellet implantation were analyzed using the ‘Compare’ technique, in which the evaluation is based on the exact positioning and region of interest placement of the baseline scan. […] Over the 18 months, the coefficient of variation for the bone mineral density of a plastic-embedded whole mouse skeleton was 3.0% (n=146).

Male Swiss Webster mice [2] = test: Serum and urine biochemical measurements (osteocalcin, deoxypyridinoline); format: in vivo, mouse; details: 27 days; for Osteocalcin: serum; for Deoxypyridinoline: urine
Method: as §1, with “Animals” for “Bone mineral density (BMD) determinations were done at two week intervals to identify the peak adult bone mass of the mice, which was reached between 5 and 6 months-of-age (9). Animals”
Serum osteocalcin was measured by radioimmunoassay using a goat anti-murine osteocalcin and murine osteocalcin as tracer and standard (Biomedical Technologies, Stoughton, Mass.). Urinary free deoxypyridinoline excretion was determined by a microtiter competitive enzyme immunoassay (Pyrilinks-D, Metra Biosystems, Mountain View, Calif.) and was expressed as a ratio to the urinary creatinine.

[3] = Food intake, body weight, seminal vesicle weight and hepatic fatty infiltration; format: in vivo, mouse; details: mice; for Seminal Vesicle Weight: index of androgen status
Method: Male Swiss Webster mice (Charles River Laboratories, Stone Ridge, N.Y.) were electronically tagged (Biomedic Data System Inc., Maywood, N.J.) and kept in plastic cages (3-5 animals per cage) under standard laboratory conditions with a 12 hr dark, 12 hr light cycle and a constant temperature of 20° C. and humidity of 48%. All mice were fed on a standard rodent diet (Agway RMH 3000, Arlington Heights, Ill.) containing 22% protein, 5% fat, 5% fiber, 6% ash, 3.5 Kcal/g, 1.0 IU vitamin D3/g, 0.97% calcium and 0.85% phosphorus with water ad libitum. The animals and food supply were weighed at one week intervals throughout the experiment. Studies were approved by the UAMS Division of Laboratory and Animal Medicine.
as §1

[4] = system: murine vertebral cancellous bone; test: Vertebral cancellous bone histomorphometry after 27 days
Method: as §1, with “Animals” for “Bone mineral density (BMD) determinations were done at two week intervals to identify the peak adult bone mass of the mice, which was reached between 5 and 6 months-of-age (9). Animals”
(§2) The distal femora and lumbar vertebrae were fixed in 4° C. Millonig's phosphate-buffered 10% formalin, pH 7.4, embedded undecalcified in methyl methacrylate and stained (7,9,13). The histomorphometric examination was done with a computer and digitizer tablet (OsteoMetrics Inc. Version 3.00, Atlanta, Ga.) interfaced to a Zeiss Axioscope (Carl Zeiss, Inc., Thornwood, N.Y.) with a drawing tube attachment. All cancellous measurements were two-dimensional, confined to the secondary spongiosa and made at ×400 magnification (numerical aperture 0.75). The terminology and units used are those recommended by the Histomorphometry Nomenclature Committee of the American Society for Bone and Mineral Research (14). The trabecular width and osteoid width were measured directly. Trabecular spacing and number were calculated (15). Only TRAPase-positive cells were included in the osteoclast perimeter. The rate of bone formation (μm^2/μm/d) and turnover (%/d) were calculated (7).

[5] = system: CFU-F, CFU-OB and osteoclast progenitors in bone marrow cells; test: Osteoblastogenesis and osteoclastogenesis in ex vivo bone marrow cell cultures; design: species or system mouse; details: 27 d
Method: One femur from each mouse was flushed with 5 ml of phenol red-free αMEM (Gibco BRL, Gaithersburg, Md.) containing 10% FBS (Hyclone, Logan, Utah) to obtain marrow cells. After the cells were rinsed and resuspended to obtain a single cell suspension, the nucleated cell count was determined using a Coulter Counter. Cells from each animal were cultured separately.
The number of colony-forming unit-fibroblast (CFU-F) and CFU-osteoblast (CFU-OB) present in the bone marrow preparations were determined (16-18). Briefly, cells were seeded at 1.5×10^6 per 10 cm^2 well for the determination of CFU-F number and maintained for 10 days in phenol red-free αMEM containing 15% preselected FBS, 50 μM ascorbic acid and 10 mM β-glycerophosphate (Sigma Chemical Co, St. Louis, Mo.) with one-half of the medium replaced after 5 days. After fixation in neutral buffered formalin and staining with hematoxylin, colonies containing a minimum of 20 fibroblastoid cells were enumerated. Cells were seeded at 2.5×10^6 cells per 10 cm^2 well for the determination of CFU-OB number and cultured for 25-28 days as described above for CFU-F. After fixation in 50% ethanol and 18% formaldehyde, cultures were stained using Von Kossa's method to visualize and enumerate colonies containing mineralized bone matrix.
Osteoclast formation in bone marrow cultures was assessed in replicate cultures (4-6 from each animal) maintained for 9 days in the presence of αMEM, 10% FBS and 10 nM 1.25(OH)2D3 (7). Briefly, marrow cells were cultured at 1.5×10^6 per 2 cm^2 well on 13 mm round Thermanox disks and maintained for 8 days in the presence of 10% FBS in αMEM supplemented with 10^−8 M 1.25(OH)2D3 (provided by Dr. Milan Uskokovic, Hoffman-LaRoche, Nutley, N.J.). At the end of the experiment, cells were processed for the autoradiographic detection of bound ^125I-calcitonin (^125I-CT) and stained for tartrate-resistant acid phosphatase. […] Therefore, mononucleated and multinucleated cells that both bind ^125I-CT and express TRAPase were designated as osteoclastic cells. The number of osteoclasts formed in this assay is a reflection of the number of osteoclast progenitors present in the bone marrow aspirate and the number of stromal/osteoblastic support cells that form during the culture period.
The number of CFU-F colonies, CFU-OB colonies, and osteoclastic cells formed from the marrow cells of each animal was expressed as the number per femur, which was calculated by multiplying the number of colonies or osteoclasts obtained per 10^6 cells seeded at the initiation of the cultures by the total number of marrow cells obtained from the animal.

[6] = system: murine osteoblasts and osteocytes; test: Apoptosis (TUNEL) in undecalcified murine bone sections; format: in vivo, mouse
Method: Sections were mounted on silane-coated glass slides (Scientific Device Lab, Inc., Des Plains, Ill.), deplasticized and incubated in 10 mM citrate buffer, pH 7.6, in a microwave oven at 98° C. for 5 minutes. Slides were then incubated with 0.5% pepsin for 30 minutes at 37° C. Apoptotic cells were detected by the TUNEL reaction (transferase-mediated biotin-dUTP nick end-labeling) using Klenow terminal deoxynucleotidyl transferase (Oncor, Gaithersburg, Md.) in sections counterstained with 1% methyl green. The TUNEL reaction was noted within cell nuclei and the cells whose nuclei were clearly brown from the peroxidase-labeled anti-digoxigenin antibody instead of the blue-green from the methyl green were interpreted as positive. Plastic-embedded sections of weaned rat mammary tissue were used as a positive control. Negative controls were made by omitting the transferase. Morphological changes characteristic of apoptosis were examined carefully to minimize ambiguity regarding the interpretation of results. With these precautions, TUNEL has been unequivocally associated with apoptosis (19). […] Apoptosis was also assessed in transiliac bone biopsy specimens taken from two patients with glucocorticoid-induced osteoporosis (receiving 15 to 25 mg/d of prednisone for 3 to 6 yr) and from 12 age-, sex- and race-matched controls (13). Two longitudinal sections were examined from each patient and control subject. Osteoblasts were identified as cuboidal cells lining the osteoid-covered trabecular perimeter (7,9,13). Osteocytes were identified inside lacunae in mineralized bone.

[7] = system: murine vertebral cancellous bone; format: in vivo, mouse
Method: as §2
To directly establish whether glucocorticoids initially accelerate bone resorption in the mouse, the vertebral cancellous bone histology were examined in an additional group of somewhat younger mice (5-mo-old) after 7 days administration of the higher dose of prednisolone or placebo (n=5).

[8] = higher dose (2.1 mg/kg/d), 27 days, vs placebo

SMILES: C[C@]12C=CC(=O)C=C1CC[C@@H]1[C@@H]2[C@@H](O)C[C@@]2(C)[C@H]1CC[C@]2(O)C(=O)CO [prednisolone]
- Global BMD (% change) (Male Swiss Webster mice [1]; 0.7 mg/kg/d s.c. slow-release pellet): −5.0 ± 2.2 % change
- Hindquarters BMD (% change) (Male Swiss Webster mice [1]; 0.7 mg/kg/d): −3.8 ± 8.0 % change
- Spinal BMD (% change) (Male Swiss Webster mice [1]; 0.7 mg/kg/d): −6.8 ± 3.2 % change
- Effect on bone mineral density (Male Swiss Webster mice [1]; 1.4 mg/kg/d, pilot studies): invariably causes densitometric evidence of bone loss
- Global BMD (% change) (Male Swiss Webster mice [1]; 2.1 mg/kg/d s.c. slow-release pellet): −6.6 ± 1.9 % change
- Hindquarters BMD (% change) (Male Swiss Webster mice [1]; 2.1 mg/kg/d): −3.4 ± 6.9 % change
- Spinal BMD (% change) (Male Swiss Webster mice [1]; 2.1 mg/kg/d): −8.7 ± 3.5 % change
- Effect on bone mineral density (Male Swiss Webster mice [1]; pellets releasing 0.5 mg/kg/d (the no effect dose)): did not decrease bone mineral density
- Decrease of serum osteocalcin compared to placebo (Male Swiss Webster mice [2]): more than 50%
- Osteocalcin (Male Swiss Webster mice [2]; 0.7 mg/kg/d): 63.0 ± 27.7 µg/L
- Osteocalcin (Male Swiss Webster mice [2]; 2.1 mg/kg/d): 46.4 ± 13.8 µg/L
- Deoxypyridinoline (Male Swiss Webster mice [2]; 0.7 mg/kg/d): 63.6 ± 14.7 μM/mM creatinine
- Deoxypyridinoline (Male Swiss Webster mice [2]; 2.1 mg/kg/d): 81.5 ± 11.3 μM/mM creatinine
- Body Weight ([3]; 0.7 mg/kg/d): 33.8 ± 4.3 g
- Food Intake ([3]; 0.7 mg/kg/d): 3.6 ± 0.2 g/day
- Seminal Vesicle Weight ([3]; 0.7 mg/kg/d): 92.7 ± 8.7 mg/100 g body weight
- Body Weight ([3]; 2.1 mg/kg/d): 32.2 ± 4.2 g
- Food Intake ([3]; 2.1 mg/kg/d): 3.7 ± 0.4 g/day
- Seminal Vesicle Weight ([3]; 2.1 mg/kg/d): 83.1 ± 6.9 mg/100 g body weight
- Hepatic fatty infiltration ([3]; sign of prednisolone toxicity, 27 days): absent
- Bone area/Tissue area ([4]; 0.7 mg/kg/d, 27 days): 6.9 ± 2.1%
- Bone area/Tissue area ([4]; 2.1 mg/kg/d, 27 days): 6.3 ± 1.7 %
- Decrease in mineralizing perimeter ([4]; 27 days): 26%
- Decline in mineral appositional rate ([4]; higher dose (2.1 mg/kg/d), 27 days): 40%
- Decline in trabecular width [4, 8]: 23%
- Decline in vertebral cancellous bone area [4, 8]: 40%
- Decrease in osteoid area ([4]; higher dose, 27 days): 29%
- Decrease in osteoid perimeter ([4]; higher dose, 27 days): 34%
- Decrease in osteoid width ([4]; higher dose, 27 days): 27%
- Decrease in rate of bone formation ([4]; higher dose, 27 days): 53%
- Decline in mineral appositional rate ([4]; lower dose (0.7 mg/kg/d), 27 days): 22%
- Active lifespan of an osteoblast ([4]; mouse, in vivo): about 260 hours
- Increase in empty erosion cavities or reversal perimeter ([4]; mouse, in vivo): 3 fold
- Wall width ([4]; mouse, in vivo): about 8 μm
- CFU-F colonies ([5]; higher dose (2.1 mg/kg/d), placebo 1250±374, NS): 698±104 number per femur
- Decrease in number of CFU-OB colonies ([5]; higher dose): 86%
- Decrease in number of osteoclastic cells ([5]; higher dose): 65%
- CFU-OB colonies ([5]; higher dose, placebo 375±257): 54±14 number per femur
- Osteoclastic cells formed in response to 1.25(OH)2D3 ([5]; higher dose, placebo 1387±920): 492±311 number per femur
- Apoptotic hypertrophic chondrocytes and bone marrow cells ([6]; either dose, mice): increase
- Increase in osteoblast apoptosis in vertebrae ([6]; higher dose, 27 days, vs controls): 3 fold
- Apoptotic osteocytes in femoral metaphyseal cortical bone ([6]; higher dose, 27 days, 131 osteocytes, none in controls): 28%
- Osteoblast apoptosis in vertebral cancellous bone ([6]; higher dose, 27 days, controls 0.66%±0.07): 2.03%±0.34
- fAp, fraction of osteoblasts that undergoes apoptosis ([6]; higher dose, estimate with tAp doubled, placebo 0.6): 0.9
- Prevalence of osteoblast apoptosis (fraction) ([6]; higher dose, placebo 0.0066): 0.0203
- Osteoclast apoptosis ([6]; mice, 27 days): not observed
- Decrease in osteoblast perimeter ([7]; higher dose, 7 days): 59%
- Increase in osteoclast perimeter ([7]; higher dose, 7 days): 96%
- Osteoblast perimeter ([7]; mouse, in vivo): 2.1±1.1%
- Osteoclast perimeter ([7]; mouse, in vivo): 1.00±0.41%
